Reference: PubChem BioAssay (NCI)
Converted amounts (≈) assume the structure as drawn.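 Tested at 5 concentrations; 48 h exposure; 96-well plates; endpoints linearly interpolated, else capped at highest concentration. Here, GI50 denotes the concentration required for 50% inhibition of growth. At the TGI there is no net growth.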 Where a SMILES comes first, the peptide text is derived from it. The star is where a group is joined. OBn = c1ccc(CO*)cc1

Assays:
Experiment in all cases: NCI tumour cell line growth inhibition, 48 h; in the data active = GI50 below about 0.43 µM; inactive = the rest
CCRF-CEM leukemia = test system: CCRF-CEM leukemia
MDA-N = test system: MDA-N
SK-OV-3 ovarian = test system: SK-OV-3 ovarian
MDA-MB-435 = test system: MDA-MB-435
T-47D breast = test system: T-47D breast
IGROV1 ovarian = test system: IGROV1 ovarian
SW-620 colon = test system: SW-620 colon
BT-549 breast = test system: BT-549 breast
NCI-H226 lung = test system: NCI-H226 lung
MCF7 breast = test system: MCF7 breast
OVCAR-5 ovarian = test system: OVCAR-5 ovarian
SK-MEL-5 melanoma = test system: SK-MEL-5 melanoma
UACC-62 melanoma = test system: UACC-62 melanoma
A549 NSCLC = test system: A549 NSCLC
K-562 leukemia = test system: K-562 leukemia
SNB-19 CNS = test system: SNB-19 CNS
HCT-15 colon = test system: HCT-15 colon
A498 renal = test system: A498 renal
HOP-62 NSCLC = test system: HOP-62 NSCLC
U251 CNS = test system: U251 CNS
RPMI-8226 leukemia = test system: RPMI-8226 leukemia
SF-268 CNS = test system: SF-268 CNS
786-0 renal = test system: 786-0 renal
SF-295 CNS = test system: SF-295 CNS
HL-60(TB) leukemia = test system: HL-60(TB) leukemia
PC-3 prostate = test system: PC-3 prostate
HS 578T breast = test system: HS 578T breast
TK-10 renal = test system: TK-10 renal
MOLT-4 leukemia = test system: MOLT-4 leukemia
RXF 393 renal = test system: RXF 393 renal
KM12 colon = test system: KM12 colon
MALME-3M melanoma = test system: MALME-3M melanoma
UACC-257 melanoma = test system: UACC-257 melanoma
NCI-H460 lung = test system: NCI-H460 lung
LOX IMVI melanoma = test system: LOX IMVI melanoma
M14 melanoma = test system: M14 melanoma
MDA-MB-231 breast = test system: MDA-MB-231 breast
ACHN renal = test system: ACHN renal
EKVX NSCLC = test system: EKVX NSCLC
OVCAR-4 ovarian = test system: OVCAR-4 ovarian
SK-MEL-28 melanoma = test system: SK-MEL-28 melanoma
SN12C renal = test system: SN12C renal
DU-145 prostate = test system: DU-145 prostate
HOP-92 NSCLC = test system: HOP-92 NSCLC
NCI/ADR-RES ovarian = test system: NCI/ADR-RES ovarian
COLO 205 colon = test system: COLO 205 colon
OVCAR-3 ovarian = test system: OVCAR-3 ovarian
SK-MEL-2 melanoma = test system: SK-MEL-2 melanoma
UO-31 renal = test system: UO-31 renal
SR leukemia = test system: SR leukemia
OVCAR-8 ovarian = test system: OVCAR-8 ovarian
HCC-2998 colon = test system: HCC-2998 colon
HT29 colon = test system: HT29 colon
NCI-H522 lung = test system: NCI-H522 lung
NCI-H23 lung = test system: NCI-H23 lung
SNB-75 CNS = test system: SNB-75 CNS
HCT-116 colon = test system: HCT-116 colon
SF-539 CNS = test system: SF-539 CNS
CAKI-1 renal = test system: CAKI-1 renal

CC(=O)NC(C(=O)N1CCCC1C(=O)OCc1ccccc1)C(C)C (stereo not drawn) (Ac-Val-Pro-OBn; configuration not given here)
inactive: GI50 (CCRF-CEM leukemia) 52 µg/mL | GI50 (MDA-N) 80.7 µg/mL (≈ 233 µM)

O=C(O)c1ccc2c3c(ncnc13)-c1ccccc1C2=O
> 21 µM: TGI (SNB-75 CNS)
> 30.6 µM: TGI (SF-295 CNS)
> 29.9 µM: TGI (BT-549 breast)
16.7 µM: TGI (COLO 205 colon)
> 88.7 µM: TGI (RPMI-8226 leukemia)
> 100 µM: TGI (SK-OV-3 ovarian) | TGI (T-47D breast) | TGI (IGROV1 ovarian) | TGI (CCRF-CEM leukemia) | TGI (SW-620 colon) | TGI (NCI-H226 lung) | TGI (MCF7 breast) | TGI (OVCAR-5 ovarian) | TGI (K-562 leukemia) | TGI (SNB-19 CNS) | TGI (U251 CNS) | TGI (SF-268 CNS) | TGI (786-0 renal) | TGI (HL-60(TB) leukemia) | TGI (PC-3 prostate) | TGI (TK-10 renal) | TGI (MOLT-4 leukemia) | TGI (RXF 393 renal) | TGI (KM12 colon) | TGI (UACC-257 melanoma) | TGI (MDA-MB-231 breast) | TGI (ACHN renal) | TGI (EKVX NSCLC) | TGI (OVCAR-4 ovarian) | TGI (HOP-92 NSCLC) | TGI (NCI/ADR-RES ovarian) | TGI (OVCAR-3 ovarian) | TGI (SK-MEL-2 melanoma) | TGI (UO-31 renal) | TGI (SR leukemia) | TGI (OVCAR-8 ovarian) | TGI (HCC-2998 colon) | TGI (NCI-H522 lung) | TGI (HCT-116 colon) | TGI (SF-539 CNS) | TGI (CAKI-1 renal)
2.65 µM: TGI (SK-MEL-5 melanoma)
6.11 µM: TGI (UACC-62 melanoma)
> 28 µM: TGI (HT29 colon)
inactive: GI50 (SK-OV-3 ovarian) > 89.5 µM | GI50 (MDA-MB-435) 1.72 µM | GI50 (T-47D breast) > 100 µM | GI50 (IGROV1 ovarian) 43.9 µM | GI50 (CCRF-CEM leukemia) > 84.6 µM | GI50 (SW-620 colon) 4.78 µM | GI50 (BT-549 breast) 2.51 µM | GI50 (NCI-H226 lung) 4.08 µM | GI50 (MCF7 breast) 4.14 µM | GI50 (OVCAR-5 ovarian) 37.9 µM | GI50 (SK-MEL-5 melanoma) 1.34 µM | GI50 (UACC-62 melanoma) 2.44 µM | GI50 (A549 NSCLC) 2.23 µM | GI50 (K-562 leukemia) 42.1 µM | GI50 (SNB-19 CNS) 3.52 µM | GI50 (HCT-15 colon) 2.47 µM | GI50 (A498 renal) 1.96 µM | GI50 (HOP-62 NSCLC) 1.76 µM | GI50 (U251 CNS) 4.08 µM | GI50 (RPMI-8226 leukemia) 51.3 µM | GI50 (SF-268 CNS) 37.1 µM | GI50 (786-0 renal) 37 µM | GI50 (SF-295 CNS) 2.28 µM | GI50 (HL-60(TB) leukemia) 27.3 µM | GI50 (PC-3 prostate) 43.3 µM | GI50 (HS 578T breast) 1.19 µM | GI50 (TK-10 renal) 21.9 µM | GI50 (MOLT-4 leukemia) > 100 µM | GI50 (RXF 393 renal) > 47.2 µM | GI50 (KM12 colon) 7 µM | GI50 (MALME-3M melanoma) 0.517 µM | GI50 (UACC-257 melanoma) 8.6 µM | GI50 (NCI-H460 lung) 2.43 µM | GI50 (LOX IMVI melanoma) 1.74 µM | GI50 (M14 melanoma) 1.35 µM | GI50 (MDA-MB-231 breast) > 100 µM | GI50 (ACHN renal) 25.7 µM | GI50 (EKVX NSCLC) 51.6 µM | GI50 (OVCAR-4 ovarian) > 100 µM | GI50 (SK-MEL-28 melanoma) 1.64 µM | GI50 (SN12C renal) 4.26 µM | GI50 (DU-145 prostate) 1.46 µM | GI50 (HOP-92 NSCLC) > 100 µM | GI50 (NCI/ADR-RES ovarian) 42.8 µM | GI50 (COLO 205 colon) 3.25 µM | GI50 (OVCAR-3 ovarian) 31.2 µM | GI50 (SK-MEL-2 melanoma) 20.7 µM | GI50 (UO-31 renal) 15.8 µM | GI50 (SR leukemia) 35.7 µM | GI50 (OVCAR-8 ovarian) 47.5 µM | GI50 (HCC-2998 colon) 8.52 µM | GI50 (HT29 colon) 3.45 µM | GI50 (NCI-H522 lung) 13.8 µM | GI50 (NCI-H23 lung) 0.796 µM | GI50 (SNB-75 CNS) 3.21 µM | GI50 (HCT-116 colon) 27.2 µM | GI50 (SF-539 CNS) 8.5 µM | GI50 (CAKI-1 renal) > 81.1 µM
> 87.2 µM: TGI (SN12C renal)
6.28 µM: TGI (HS 578T breast)
10.9 µM: TGI (A498 renal)
> 48 µM: TGI (HCT-15 colon)
3.05 µM: TGI (M14 melanoma) | TGI (NCI-H23 lung)
3.75 µM: TGI (HOP-62 NSCLC)
1.58 µM: TGI (MALME-3M melanoma)
6.02 µM: TGI (NCI-H460 lung)
4.04 µM: TGI (SK-MEL-28 melanoma)
18.5 µM: TGI (LOX IMVI melanoma)
4.84 µM: TGI (A549 NSCLC)
3.59 µM: TGI (MDA-MB-435)
2.83 µM: TGI (DU-145 prostate)
